Laboratory results reported in patent publication US20100184675A1, “USE OF GLUCAGON (1-29) ALONE OR IN COMBINATION WITH NEUROPEPTIDE W30 AS A THERAPEUTIC AGENT” (priority 2007, published 2010).
Ends that are not written are not given here.

Test system: drug-resistant Mycobacterium tuberculosis
Assay: Mycobacterium tuberculosis assay
Assay type: cell-based
Details: 10 micrograms per ml; seven days; strain resistant to PAS, streptomycin, INH; combination 0.95:1.05 mole and all other molar ratios from 1:100 to 100:1

Trp-Tyr-Lys-His-Val-Ala-Ser-Pro-Arg-Tyr-His-Thr-Val-Gly-Arg-Ala-Ala-Gly-Leu-Leu-Met-Gly-Leu-Arg-Arg-Ser-Pro-Tyr-Leu-Trp-OH (WYKHVASPRYHTVGRAAGLLMGLRRSPYLW-OH) [Peptide 2, Neuropeptide W-30, commercially available known peptide]
inhibition of the growth of Mycobacterium tuberculosis: 100%
